Source: PubChem BioAssay AID179 (DTP/NCI, 2004)
Activity calls are given as the source filed them.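 How the source made its calls: active means compounds giving half or more protection of infected cells from virus-caused growth loss, again on retest; inactive means the rest.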

Tested on: CEM cells HIV-1 protection, formazan growth assay
Assay: NCI AIDS Antiviral Assay
Settings: for IC50: measured here: growth of uninfected CEM cells
Experimental: The ability of compounds to protect human CEM cells from HIV-1 infection is measured as a screen for new compounds capable of inhibiting the HIV virus. Five concentrations of drug were tested on uninfected and infected cells and cell growth was measured using a soluble formazan assay. […] Compounds that provided at least 50% protection were retested. Compounds that provided at least 50% protection on retest were listed as moderately active. Compounds that reproducibly provided 100% protection were listed as confirmed active. […] Note that the inability to provide protection could be due to toxicity.

Row | Structure (SMILES) | EC50 | IC50 | outcome
1 | [N-]=[N+]=Nc1nc2ccccc2c(N=[N+]=[N-])c1Cl | > 200 µM | 132 µM | –
2 | CCOC(=O)CCC(NC(=O)OCc1ccccc1)C(=O)NC(CCC(=O)OCC)C(=O)NC(CCC(=O)OCC)C(=O)NNC(=O)OC(C)(C)C (configuration not stated) | > 200 µM | > 200 µM | –
3 | Nc1nc2c(c(=O)[nH]1)Cc1nc(N)[nH]c(=O)c1C2 | > 24.5 µM | > 24.5 µM | –
4 | COc1cc2ccc3c4cc(OC)c(OCc5ccccc5)cc4cnc3c2cc1OC | – | – | inactive
5 | CCCCCCCCCCCCCCCCCCSCC(COP(=O)(O)OP(=O)(O)OCC1OC(n2ccc(=O)[nH]c2=O)CC1N=[N+]=[N-])OC(=O)CCCCCCCCCCCCCCC (configuration not stated) | > 209 µM | 186 µM | –
6 | CN(C)c1ccc(/C=C2\CCc3ccccc3C2=O)cc1 | > 9.77 µM | 5.5 µM | –
7 | CO/N=C(/C(=O)N(C(=O)/C(=N/OC)c1csc(NC(c2ccccc2)(c2ccccc2)c2ccccc2)n1)n1cnn(CC(=O)OC(C)(C)C)c1=O)c1csc(NC(c2ccccc2)(c2ccccc2)c2ccccc2)n1 | > 200 µM | 174 µM | –
8 | S=c1ncc2c([nH]1)C1c3ccccc3C2c2ccccc21 | > 200 µM | 120 µM | –
9 | COC(=O)C1C(=O)N(C)C(=O)N2CCCC12 (configuration not stated) | > 200 µM | > 200 µM | –
10 | C[C@@]12C[C@@H](c3ccccc3O1)N1Cc3ccccc3CSC1=N2 | > 200 µM | 49 µM | –
11 | CNC(=O)[C@H](Cc1ccccc1)NC(=O)N(CCC#N)CCN(C(=O)N[C@@H](Cc1ccccc1)C(=O)OC)c1ccccc1 | > 200 µM | > 200 µM | –
12 | CCOC(=O)CC(=O)C(=O)NNC1=NCCCN1 | > 200 µM | > 200 µM | –
13 | CC1C(c2ccccc2)SC(=N)N1C (configuration not stated) | > 417 µM | 257 µM | –
14 | O=c1[nH]c2c(c(=O)[nH]1)SSC2 | > 200 µM | 0.631 µM | –
15 | COC(=O)C1(C)C=C(Nc2ccccc2)C(=O)N1c1ccccc1 (configuration not stated) | > 6.17 µM | > 6.17 µM | –
16 | COc1ccc2c(c1)OCc1c-2oc2ccccc2c1=O | > 100 µM | > 100 µM | –
17 | O=c1nc2n(c3nsnc13)CCO2 | > 132 µM | > 132 µM | –
18 | CN(C)CCNc1ccc2c(=O)n(CCN(C)C)c(=O)n3c4ccc(N)cc4c(=O)c1c23 | > 200 µM | 0.0631 µM | –
19 | O=C1C(Cl)=C(Cl)C(=O)N1c1ccc(F)cc1 | – | – | inactive
20 | COc1ccc(CN2COc3c(cc(Cl)c4cccnc34)C2)cc1 | > 200 µM | 1.55 µM | –
21 | COC(=O)C(=O)C1(CCC(C)=O)c2ccccc2-c2c(C)ccc(C)c21 (configuration not stated) | – | – | inactive
22 | CCOC(=O)[C@@H]1ON2OC(OC3CCCC3(c3ccccc3)c3ccccc3)C(OC(C)=O)[C@H]3OC(=O)[C@@H]1C32 (some centres not stated) | > 200 µM | > 200 µM | –

Row | Structure (SMILES) | EC50 | IC50 | outcome
23 | Cc1cccc(C)c1NC(=S)NNC(=O)NNC(=S)Nc1c(C)cccc1C | > 200 µM | > 200 µM | –
24 | CCc1ccc2c(c1)CC1(C2)Cc2cc3c(cc2C1)C(=O)CC3 (configuration not stated) | > 200 µM | 12.6 µM | –
25 | CCOC(=O)C(=O)Nc1ccc([N+](=O)[O-])cc1C#N | > 355 µM | > 355 µM | –
26 | Nc1ccc(C(=O)N/C(=C\c2cccc([N+](=O)[O-])c2)c2nc3ccc(Cl)cc3[nH]2)cc1 | – | – | inactive
27 | O=C(NC1CCC(CC2CCC(NC(=O)c3cc(O)c(O)c(O)c3)CC2)CC1)c1cc(O)c(O)c(O)c1 (configuration not stated) | > 100 µM | 10.5 µM | –
28 | CCn1cc2c(=O)n3ncn(-c4ccc(Br)cc4)c3nc2n1 | – | – | inactive
29 | N#CCCC1(CCC#N)S(=O)(=O)OCCOS1(=O)=O | > 200 µM | 44.7 µM | –
30 | COc1c(CC(C)=O)ccc2c1C(=O)c1ccc(C=O)c(OC(C)=O)c1C2=O | – | – | inactive
31 | COc1ccc(C(=O)O/N=C2/CCC/C2=C\c2ccccc2)cc1 | – | – | inactive
32 | O=C1C(Cl)=C(O)C2(Cl)C(Cl)=C(Cl)C12Cl (configuration not stated) | – | – | inactive
33 | Cc1[nH]nc2c1NC(=O)OC2C (configuration not stated) | > 1480 µM | 1200 µM | –
34 | C/C=C(\C)C(=O)OC1CC(OC(C)=O)C2(C(=O)OC)COC3C2C1(C)C1C2(C(=O)OC)OCC1(C3O)C1(O)C3CC(C4(O)C=COC4O3)C1(C)O2 (configuration not stated) | > 200 µM | 174 µM | –
35 | CC12CCC(C(=O)OC1=O)C(C)(C)O2 (configuration not stated) | > 200 µM | > 200 µM | –
36 | COc1ccccc1NC(=O)CC(=O)N1N=C(c2ccccc2)C(N=Nc2ccc(Cl)cc2)C1=O (configuration not stated) | > 74.1 µM | 64.6 µM | –
37 | Cc1ccc([N+](=O)[O-])cc1P(=O)(O)c1cc([N+](=O)[O-])ccc1C | > 200 µM | > 200 µM | –
38 | CCN(CCCl)c1cc(C[N+](C)(C)[O-])cc(NC(=O)c2ccc(C(=O)Nc3cc(C[N+](C)(C)[O-])cc(N(CC)CCCl)c3)cc2)c1 | > 200 µM | 36.3 µM | –
39 | COc1ccc(-c2c(C#N)c(-c3ccc(C)cc3)n(NS(=O)(=O)c3ccccc3)c(=O)c2C#N)cc1 | > 200 µM | 29.5 µM | –
40 | CN(C)c1ccc2cc3ccc(N(C)C)cc3nc2c1 | > 200 µM | 0.309 µM | –
41 | COc1cc(/C=N/NC(=O)CC(=O)N(C(=O)c2ccc(Cl)cc2)c2ccc(C)cc2)ccc1O | > 195 µM | > 195 µM | –
42 | O=C1c2ccccc2CC12Cc1cc3c(cc1C2=O)CCC3 (configuration not stated) | > 200 µM | > 200 µM | –
43 | CN(C)CCNC(=O)c1cccc(C(=O)Nc2ccccc2)c1[N+](=O)[O-] | > 200 µM | > 200 µM | –
44 | Cc1cc(=O)c2ccccc2o1 | – | – | inactive

Row | Structure (SMILES) | EC50 | IC50 | outcome
45 | O=c1[nH]nc(Cc2ccccc2)n1Nc1ccccc1 | > 200 µM | > 200 µM | –
46 | Clc1nc2cc3nc(Cl)c(Cl)nc3cc2nc1Cl | > 50.1 µM | 33.1 µM | –
47 | COC(=O)CCCC=C(c1cc(C)c(OC)c(C(=O)OC)c1)c1cc(C)c(OC)c(C(=O)OC)c1 | 2.4 µM | 89.1 µM | –
48 | O=C(C(Cl)=C(N1CCOCC1)N1CCOCC1)C(Cl)Cl | > 200 µM | 112 µM | –
49 | COc1cc(C2c3cccc4cccc(c34)C3CCC(=O)N32)cc(OC)c1O (configuration not stated) | > 50.1 µM | 1.32 µM | –
50 | Cc1csc(CP(=O)(OC(C)C)OC(C)C)n1 | > 200 µM | > 200 µM | –
51 | c1ccc2c(c1)SC1=C(SC(=C3SC4=C(S3)Sc3ccccc3S4)S1)S2 | > 100 µM | > 100 µM | –
52 | CC(=O)Nc1cc(=O)[nH]c2c1CCC2 | – | – | inactive
53 | [N-]=[N+]=C1C(=O)NCN=C1c1ccccc1 | > 339 µM | > 339 µM | –
54 | Cc1cc(S(=O)(=O)Nc2nnc3ccccn23)c(S)cc1Cl | 102 µM | 380 µM | –
55 | O=C(OCC(Cl)(Cl)Cl)N1CC[C@@H](C2CCCCC2)C1 | > 200 µM | 52.5 µM | –
56 | COc1cccc(/C=N/[N-]C(=O)c2ccncc2)c1[O-].[OH3+].[Pd+2] | > 16.6 µM | > 16.6 µM | –
57 | Cc1nn(C)c(=O)[nH]c1=O | > 1780 µM | > 1780 µM | –
58 | c1ncc(C23C4C5C6C4C2C6C53)[nH]1 (configuration not stated) | > 200 µM | 155 µM | –
59 | CC1(C)CC[C@]2(C(=O)O)CCC3(C)C(=CCC4[C@@]5(C)CC[C@H](OC6OCC(O)C(O)C6OC6OC(CO)C(O)C(O)C6O)C(C)(C)C5CC[C@]43C)C2C1 (some centres not stated) | – | – | inactive
60 | CCN1CC2(COC)C(O)CC(OC)C34C5CC6(O)C(O)C5C(O)(C(O)C6OC)C(C(OC)C23)C14 (configuration not stated) | > 200 µM | > 200 µM | –
61 | Nc1cc(Cl)cc(Cl)c1O | > 162 µM | 120 µM | –
62 | COc1cccc(C2CC(C)=Nc3c(ccc4c3C(=O)c3ccccc3C4=O)N2)c1O (configuration not stated) | > 9.12 µM | > 9.12 µM | –
63 | CC(=N)N(C)O | > 2000 µM | > 2000 µM | –
64 | CN(/N=C\c1ccc2ccccc2c1)C1=NCCCCN1 | > 200 µM | 28.8 µM | –
65 | CCOC(=O)c1cc2sc(NC(=O)c3ccccc3)nc2o1 | – | – | inactive
66 | COc1cc2c(OC)cc1CSCc1sc(C)c(c1Br)CSC2 | > 11.5 µM | > 11.5 µM | –

Row | Structure (SMILES) | EC50 | IC50 | outcome
67 | Cc1ccc(/C=N/Nc2cnccn2)s1 | > 200 µM | > 200 µM | –
68 | COC(=O)C(CCCN1C(=O)c2ccccc2C1=O)C(=O)OC | – | – | inactive
69 | CC1(C)NC(=O)N(C(C)(C)C(=O)O)C1=O | > 200 µM | > 200 µM | –
70 | COc1c2c(cc3c1OCO3)C13C=CC(OC)CC1N(CC3)C2 (configuration not stated) | > 200 µM | > 200 µM | –
71 | Cc1ccc2c(c1S)C(=O)c1ccccc1C2=O | > 117 µM | 29.5 µM | –
72 | O=C(CSc1nnc(CSc2ccc(Cl)cc2)n1-c1ccccc1)NC(=O)Nc1ccccc1 | > 182 µM | 115 µM | –
73 | CCc1ccccc1C(C(=O)NC1CN2CCC1CC2)c1ccsc1 (configuration not stated) | > 200 µM | 61.7 µM | –
74 | CCn1c(O)c(C=Nc2ccccc2)s/c1=N/Nc1ncc(CC(=O)Nc2ccccc2C)s1 | > 200 µM | 170 µM | –
75 | CC(=O)c1c(-c2ccc(O)cc2)oc2cc(O)ccc12 | > 347 µM | 63.1 µM | –
76 | COc1ccc2nc(NC(=O)C(=O)C(C#N)c3ccc(CC#N)cc3)sc2c1 (configuration not stated) | – | – | inactive
77 | Cc1ncc([N+](=O)[O-])n1CCNC(=O)Cn1c([N+](=O)[O-])cnc1C | > 200 µM | > 200 µM | –
78 | O=C(O)C(=O)O | > 427 µM | > 427 µM | –
79 | O=C(/C=C/c1c(O)ccc2ccccc12)c1ccccc1Cl | > 56.2 µM | 28.2 µM | –
80 | CC(CC(=O)Nc1ccc(NC(=O)CC(C)N=NC(N)=O)cc1)N=NC(N)=O (configuration not stated) | > 129 µM | > 129 µM | –
81 | O=C([CH-]C(=O)c1ccccc1)c1ccccc1.[CH2-]C.[CH2-]C.[Tl+3] | > 53.7 µM | > 53.7 µM | –
82 | CCOC(=O)C1=CC(C)(C(=O)OCC)Nc2c(nc(SC)n(C)c2=O)N1 (configuration not stated) | > 200 µM | 145 µM | –
83 | CO/C(=N\N=C\c1cccc(Cl)c1)c1ccncc1 | > 132 µM | 83.2 µM | –
84 | CC(=O)N1CCc2[nH]c3ccccc3c2CC1 | > 575 µM | 234 µM | –
85 | CCCOP(=O)(OCCC)OC(C(F)(F)F)C(F)(F)F | > 200 µM | > 200 µM | –
86 | COc1cc(C)cc2c1C(=O)C(Br)CC2 (configuration not stated) | – | – | inactive
